Columns and labels:
Assay type in all cases: cell-based
[1] = test system: human embryonic lung fibroblast IMR-90; test: Anti-fibrosis activity test: inhibition of proliferation of human embryonic lung fibroblast IMR-90 (CCK-8)
Summary of the method: (§1)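 After one day of adherence at 37° C in 5% CO2, cells (seeded at 2×10^4 cells/mL) received the compounds for two days in triplicate. Inhibition of proliferation was quantified with CCK-8 at 450 nm, with IC50 calculated from IR = (1−Ai/Ao)×100%.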

[2] = test system: human hepatic stellate cells LX-2; test: Anti-fibrosis activity test: inhibition of proliferation of human hepatic stellate cells LX-2 (CCK-8); details: Homo sapiens, 48 h
Summary of the method: as §1

[3] = test system: human dermal fibroblasts CCC-ESF-1; test: Anti-fibrosis activity test: inhibition of proliferation of human dermal fibroblasts CCC-ESF-1 (CCK-8); details: Fibroblast
Summary of the method: as §1

[4] = test system: human lung fibroblasts HFL1; test: Anti-fibrosis activity test: inhibition of proliferation of human lung fibroblasts HFL1 (CCK-8); details: Homo sapiens, HFL1, 48 h
Summary of the method: as §1

BHK-21 cells = test: Anti-fibrosis activity test: inhibition of BHK-21 cell proliferation (CCK-8); details: Mesocricetus auratus, BHK-21, 48 h
Summary of the method: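 Cells seeded at 2×10^4 cells/mL, allowed to adhere 24 hours, then exposed to graded compound concentrations in triplicate for 48 hours at 37° C, 5% CO2. CCK-8 added for 2 hours, absorbance read at 450 nm; inhibition versus blank control used to derive IC50. Pirfenidone served as positive control.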

NF-κB = test: Immunological activity test: inhibition of NF-κB activity; details: initial concentration of 30 μM; a/b isomers given as first/second symbol; read-out: IC50 (μM), inhibitory activity against NF-κB
Summary of the method: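 Each compound is tested at 30 μM for its ability to suppress NF-κB signalling. Parthenolide runs alongside as the positive control, and the data are then analysed to give IC50 values.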

[5] = test system: cardiac fibroblast RAT-iCell-C002; test: Anti-fibrosis activity test: inhibition of proliferation of cardiac fibroblast RAT-iCell-C002 (CCK-8); details: Cardiac fibroblast, 48 h
Summary of the method: as §1

[6] = test system: mouse macrophages (RAW264.7); test: Lipopolysaccharide-induced NO secretion in macrophages (Griess); details: Mus musculus, RAW264.7, 24 h, RAW264.7, LPS 1 μg/ml, a/b isomers given as first/second symbol, read-out: IC50 (μM), inhibition of lipopolysaccharide-induced NO secretion in macrophages
Summary of the method: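 LPS 1 μg/ml, 24 h, RAW264.7 (DMEM/10% FBS); cpds at varied concs. Supernatant NO by Griess, A548; % inhibition vs blank medium.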

[7] = test system: human fibrosarcoma cells HT-1080; test: Anti-fibrosis activity test: inhibition of proliferation of human fibrosarcoma cells HT-1080 (CCK-8); details: Homo sapiens, HT-1080, 48 h
Summary of the method: as §1

[8] = human embryonic lung fibroblast IMR-90, CCK-8, 48 hours
[9] = human hepatic stellate cells LX-2, CCK-8, 48 hours
[10] = human dermal fibroblasts CCC-ESF-1, CCK-8, 48 hours
[11] = human lung fibroblasts HFL1, CCK-8, 48 hours
[12] = CCK-8, 48 hours after administration
[13] = cardiac fibroblast RAT-iCell-C002, CCK-8, 48 hours
[14] = human fibrosarcoma cells HT-1080, CCK-8, 48 hours

IC50 (NF-κB) [µM] | IC50 [6] [µM] | IC50 [7, 14] [mM] | IC50 ([7]; HT-1080 cells, 48 h, CCK-8) [mM] | SMILES | IC50 [1, 8] [mM] | IC50 [2, 9] [mM] | IC50 [3, 10] [mM] | IC50 [4, 11] [mM] | IC50 (BHK-21 cells; [12]) [mM] | IC50 [5, 13] [mM] | IC50 ([1]; Homo sapiens, IMR-90 cells, 48 h, CCK-8) [mM] | IC50 ([2]; LX-2, 48 h, LX-2 cells, CCK-8) [mM] | IC50 ([3]; Homo sapiens, CCC-ESF-1 cells, 48 h, CCK-8) [mM] | IC50 ([4]; HFL1 cells, 48 h, CCK-8) [mM] | IC50 (BHK-21 cells; 48 h, CCK-8) [mM] | IC50 ([5]; RAT-iCell-C002 cells, CCK-8) [mM]
1 to 10 | 1 to 10 | 0.05 to 5 | – | O=C1c2c(n(Cc3ccc(F)c(Cl)c3)c3ccccc3c2=O)-c2cccn21 [Compound 603a, 4-(3-Chloro-4-fluorobenzyl)-9H-pyrrolizino[1,2-b]quinoline-9,10(4H)-dione] | 0.05 to 5 | 0.05 to 5 | 0.05 to 5 | 0.05 to 5 | < 0.05 | 0.05 to 5 | – | – | – | – | – | –
1 to 10 | 1 to 10 | 0.05 to 5 | – | CC(C)(C)Cn1c2c(c(=O)c3ccccc31)C(=O)n1cccc1-2 [Compound 656a, 4-Neopentyl-9H-pyrrolizino[1,2-b]quinoline-9,10(4H)-dione] | 0.05 to 5 | 0.05 to 5 | 0.05 to 5 | 0.05 to 5 | 0.05 to 5 | 0.05 to 5 | – | – | – | – | – | –
0.1 to 1 | 1 to 10 | 0.05 to 5 | – | COc1c2c(nc3ccc(F)cc13)-c1cccn1C2=O [Compound 157b, 7-fluoro-9-methoxy-10H-pyrrolizino[1,2-b]quinolin-10-one] | 0.05 to 5 | 0.05 to 5 | 0.05 to 5 | 0.05 to 5 | 0.05 to 5 | 0.05 to 5 | – | – | – | – | – | –
10 to 50 | 1 to 10 | 0.05 to 5 | – | O=C1c2c(nc3cc(O)ccc3c2O)-c2cccn21 [Compound 524b, 6,9-dihydroxy-10H-pyrrolizino[1,2-b]quinolin-10-one] | 0.05 to 5 | 0.05 to 5 | 0.05 to 5 | 0.05 to 5 | 0.05 to 5 | 0.05 to 5 | – | – | – | – | – | –
1 to 10 | 0.1 to 1 | 0.05 to 5 | – | O=C(COc1c2c(nc3ccccc13)-c1cccn1C2=O)c1ccc(C(F)(F)F)cc1 [Compound 91b, 9-(2-oxo-2-(4-(trifluoromethyl)phenyl)ethoxy)-10H-pyrrolizino[1,2-b]quinolin-10-one] | 0.05 to 5 | 5 to 20 | 0.05 to 5 | < 0.05 | 0.05 to 5 | 0.05 to 5 | – | – | – | – | – | –
1 to 10 | 10 to 50 | 0.05 to 5 | – | Cc1ccccc1COc1c2c(nc3ccccc13)-c1cccn1C2=O [Compound 574b, 9-((2-methylbenzyl)oxy)-10H-pyrrolizino[1,2-b]quinolin-10-one] | 0.05 to 5 | 0.05 to 5 | 0.05 to 5 | 0.05 to 5 | 0.05 to 5 | 0.05 to 5 | – | – | – | – | – | –
1 to 10 | 10 to 50 | 0.05 to 5 | – | O=C1c2c(nc3ccccc3c2OCc2ccc(Cl)c(Cl)c2)-c2cccn21 [Compound 613b, 9-((3,4-dichlorobenzyl)oxy)-10H-pyrrolizino[1,2-b]quinolin-10-one] | 0.05 to 5 | 0.05 to 5 | 0.05 to 5 | 0.05 to 5 | 0.05 to 5 | 0.05 to 5 | – | – | – | – | – | –
1 to 10 | 1 to 10 | 0.05 to 5 | – | N#Cc1ccccc1Cn1c2c(c(=O)c3ccccc31)C(=O)n1cccc1-2 [Compound 577a, 2-((9,10-Dioxo-9H-pyrrolizino[1,2-b]quinolin-4(10H)-yl)methyl)benzonitrile] | 0.05 to 5 | < 0.05 | 0.05 to 5 | 0.05 to 5 | 0.05 to 5 | 0.05 to 5 | – | – | – | – | – | –
1 to 10 | 1 to 10 | 0.05 to 5 | – | O=C1c2c(nc3ccccc3c2OCCN2CCOCC2)-c2cccn21 [Compound 662b, 9-(2-morpholinoethoxy)-10H-pyrrolizino[1,2-b]quinolin-10-one] | 0.05 to 5 | 0.05 to 5 | 0.05 to 5 | 0.05 to 5 | 0.05 to 5 | 0.05 to 5 | – | – | – | – | – | –
1 to 10 | 1 to 10 | 0.05 to 5 | – | O=C1c2c(nc3c(F)cccc3c2OCc2cccc(F)c2)-c2cccn21 [Compound 458b, 5-fluoro-9-((3-fluorobenzyl)oxy)-10H-pyrrolizino[1,2-b]quinolin-10-one] | 0.05 to 5 | 0.05 to 5 | 0.05 to 5 | 0.05 to 5 | 0.05 to 5 | 0.05 to 5 | – | – | – | – | – | –
1 to 10 | 1 to 10 | 0.05 to 5 | – | O=C1c2c(nc3ccccc3c2OCc2c(F)c(F)c(F)c(F)c2F)-c2cccn21 [Compound 586b, 9-((perfluorophenyl)methoxy)-10H-pyrrolizino[1,2-b]quinolin-10-one] | 0.05 to 5 | 0.05 to 5 | 0.05 to 5 | 0.05 to 5 | 0.05 to 5 | 0.05 to 5 | – | – | – | – | – | –
1 to 10 | 1 to 10 | 0.05 to 5 | – | CCOC(=O)Cn1c2c(c(=O)c3ccccc31)C(=O)n1cccc1-2 [Compound 654a, Ethyl 2-(9,10-dioxo-9H-pyrrolizino[1,2-b]quinolin-4(10H)-yl)acetate] | 0.05 to 5 | 0.05 to 5 | < 0.05 | 0.05 to 5 | 5 to 20 | 0.05 to 5 | – | – | – | – | – | –
1 to 10 | 10 to 50 | 0.05 to 5 | – | COc1ccc2c(=O)c3c([nH]c2c1)-c1cccn1C3=O [Compound 560a, 6-Methoxy-9H-pyrrolizino[1,2-b]quinoline-9,10(4H)-dione] | 0.05 to 5 | 0.05 to 5 | 0.05 to 5 | 0.05 to 5 | 0.05 to 5 | 0.05 to 5 | – | – | – | – | – | –
1 to 10 | 10 to 50 | – | 0.05 to 5 | Cc1cc2nc3c(c(O)c2cc1C)C(=O)n1cccc1-3 [Compound 756b, 9-hydroxy-6,7-dimethyl-10H-pyrrolizino[1,2-b]quinolin-10-one] | – | – | – | – | – | – | 0.05 to 5 | 0.05 to 5 | 0.05 to 5 | 0.05 to 5 | 0.05 to 5 | 0.05 to 5
1 to 10 | 1 to 10 | < 0.05 | – | O=C1c2c(n(Cc3ccc(F)cc3F)c3ccccc3c2=O)-c2cccn21 [Compound 578a, 4-(2,4-Difluorobenzyl)-9H-pyrrolizino[1,2-b]quinoline-9,10(4H)-dione] | 0.05 to 5 | 0.05 to 5 | 0.05 to 5 | 0.05 to 5 | 0.05 to 5 | 0.05 to 5 | – | – | – | – | – | –
0.1 to 1 | 1 to 10 | 0.05 to 5 | – | N#Cc1cccc2c1c(=O)c1c(n2Cc2ccc(F)cc2)-c2cccn2C1=O [Compound 462a, 4-(4-Fluorobenzyl)-9,10-dioxo-4,10-dihydro-9H-pyrrolizino[1,2-b]quinoline-8-carbonitrile] | 0.05 to 5 | 0.05 to 5 | 0.05 to 5 | 0.05 to 5 | < 0.05 | 0.05 to 5 | – | – | – | – | – | –
1 to 10 | 1 to 10 | 0.05 to 5 | – | COc1c2c(nc3cc(N4CCNCC4)ccc13)-c1cccn1C2=O [Compound 328b, 9-methoxy-6-(piperazin-1-yl)-10H-pyrrolizino[1,2-b]quinolin-10-one] | 0.05 to 5 | 0.05 to 5 | 0.05 to 5 | 0.05 to 5 | 0.05 to 5 | 0.05 to 5 | – | – | – | – | – | –
1 to 10 | 0.1 to 1 | 0.05 to 5 | – | O=C(O)Cn1c2c(c(=O)c3ccccc31)C(=O)n1cccc1-2 [Compound 100a, 2-(9,10-Dioxo-9H-pyrrolizino[1,2-b]quinolin-4(10H)-yl)acetic acid] | 0.05 to 5 | 0.05 to 5 | 0.05 to 5 | < 0.05 | 0.05 to 5 | 0.05 to 5 | – | – | – | – | – | –
1 to 10 | 1 to 10 | 0.05 to 5 | – | O=C1c2c(n(Cc3cccc(Cl)c3)c3ccccc3c2=O)-c2cccn21 [Compound 596a, 4-(3-Chlorobenzyl)-9H-pyrrolizino[1,2-b]quinoline-9,10(4H)-dione] | 0.05 to 5 | 0.05 to 5 | 0.05 to 5 | 0.05 to 5 | 0.05 to 5 | 0.05 to 5 | – | – | – | – | – | –

— patent US11040028B2, “Penicinotam derivative, preparation method and use thereof” (OCEAN UNIVERSITY OF CHINA, priority 2017, dated 2021)
